The source of these data is US11091478B2 (Fochon Pharmaceuticals, Ltd., priority 2017, dated 2021).

In assay [1] the test system is RS4;11 cells. Description: Cell proliferation assay (MTS), RS4;11 cells, 72 h. The class given is cell-based. The conditions noted are these: Homo sapiens, RS4-11, 72 h. The method in brief:
(§1)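 RS4;11 and DOHH2 cells at 5000 cells/well in RPMI-1640 with 10% FBS were treated with compound at 1.5–10000 nM final, nine points, at 37 °C, 5% CO2. Exposure was 72 h for RS4;11 and 120 h for DOHH2. MTS was added for 2 h, absorbance read at 490/650 nm, and IC50 calculated.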

Assay [2] deals with DOHH2 cells. Description: Cell proliferation assay (MTS), DOHH2 cells, 120 h. The conditions noted are these: Homo sapiens, DOHH-2, 120 h. The format is cell-based. The method in brief: as §1

Each structure is given as a SMILES string.

For `CC(=O)N1CCN(C[C@H]2COc3cc(S(=O)(=O)NC(=O)c4ccc(N5CCN(CC6=C(c7ccc(Cl)cc7)CC(C)(C)CC6)CC5)cc4Oc4cnc5[nH]ccc5c4)cc([N+](=O)[O-])c3N2)CC1` [Example 2-96, (S)-2-((1H-pyrrolo[2,3-b]pyridin-5-yl)oxy)-N-((3-((4-acetylpiperazin-1-yl)methyl)-5-nitro-3,4-dihydro-2H-benzo[b][1,4]oxazin-7-yl)sulfonyl)-4-(4-((4′-chloro-5,5-dimethyl-3,4,5,6-tetrahydro-[1,1′-biphenyl]-2-yl)meth-yl)piperazin-1-yl)benzamide], the IC50 – broadly, the concentration needed to halve the response being measured – in assay [1] came to 72 nM; in assay [2] it was 85 nM.
The corresponding values for `CCC(=O)N1CCN(C[C@H]2COc3cc(S(=O)(=O)NC(=O)c4ccc(N5CCN(CC6=C(c7ccc(Cl)cc7)CC(C)(C)CC6)CC5)cc4Oc4cnc5[nH]ccc5c4)cc([N+](=O)[O-])c3N2)CC1` [Example 2-97, (S)-2-((1H-pyrrolo[2,3-b]pyridin-5-yl)oxy)-4-(4-((4′-chloro-5,5-dimethyl-3,4,5,6-tetra-hydro-[1,1′-biphenyl]-2-yl)methyl)piperazin-1-yl)-N-((5-nitro-3-((4-propionylpiperazin-1-yl)methyl)-3,4-dihydro-2H-benzo[b] [1,4]oxazin-7-yl)sulfonyl)benzamide] are 23 nM and 23 nM.
Regarding `COC(=O)N1CCN(C[C@H]2COc3cc(S(=O)(=O)NC(=O)c4ccc(N5CCN(CC6=C(c7ccc(Cl)cc7)CC(C)(C)CC6)CC5)cc4Oc4cnc5[nH]ccc5c4)cc([N+](=O)[O-])c3N2)CC1` [Example 2-98, methyl (S)-4-((7-(N-(2-((1H-pyrrolo[2,3-b]pyridin-5-y)oxy)-4-(4-((4′-chloro-5,5-dimethyl-3,4,5,6-tetrahydro[1,1′-biphenyl]-2-yl)methyl)piperazin-1-yl)benzoyl)sulfamoyl)-5-nitro-3,4-dihydro-2H-benzo[b][1,4]oxazin-3-yl)methyl)piperazine-1-carboxylate], the IC50 in assay [1] is 17 nM; in assay [2] it was 38 nM.
Consider `CC1(C)CCC(CN2CCN(c3ccc(C(=O)NS(=O)(=O)c4cc5c(c([N+](=O)[O-])c4)N[C@@H](CN4CCN(C(=O)C6CC6)CC4)CO5)c(Oc4cnc5[nH]ccc5c4)c3)CC2)=C(c2ccc(Cl)cc2)C1` [Example 2-99, (S)-2-((1H-pyrrolo[2,3-b]pyridin-5-yl)oxy)-4-(4-((4′-chloro-5,5-dimethyl-3,4,5,6-tetra-hydro-[1,1′-biphenyl]-2-yl)methyl)piperazin-1-yl)-N-((3-((4-(cyclopropanecarbonyl)piperazin-1-yl)methyl)-5-nitro-3,4-dihydro-2H-benzo[b][1,4]oxazin-7-yl)sulfonyl)benza-mide], for which the 50% inhibitory concentration (IC50) was found to be 8 nM in assay [1] and 20 nM in assay [2].
The corresponding values for `C[C@@H]1CNc2c(cc(S(=O)(=O)NC(=O)c3ccc(N4CCN(CC5=C(c6ccc(Cl)cc6)CC(C)(C)CC5)CC4)cc3Oc3cnc4[nH]ccc4c3)cc2[N+](=O)[O-])O1` [Example 2-100, (R)-2-((1H-pyrrolo[2,3-b]pyridin-5-yl)oxy)-4-(4-((4′-chloro-5,5-dimethyl-3,4,5,6-tetra-hydro[1,1′-biphenyl]-2-yl)methyl)piperazin-1-yl)-N-((2-methyl-5-nitro-3,4-dihydro-2H-benzo[b][1,4]oxazin-7-yl)sulfonyl)benza-mide] are 22 nM and 31 nM.
Consider `CN(C)C(=O)[C@H]1COc2cc(S(=O)(=O)NC(=O)c3ccc(N4CCN(CC5=C(c6ccc(Cl)cc6)CC(C)(C)CC5)CC4)cc3Oc3cnc4[nH]ccc4c3)cc([N+](=O)[O-])c2N1` [Example 2-102, (R)-7-(N-(2-((1H-pyrrolo[2,3-b]pyridin-5-yl)oxy)-4-(4-((4′-chloro-5,5-dimethyl-3,4,5,6-tetrahydro-[1,1′-biphenyl]-2-yl)methyl)pi-perazin-1-yl)benzoyl)sulfamoyl)-N,N-dimethyl-5-nitro-3,4-dihydro-2H-benzo[b] [1,4]oxazine-3-carboxamide], for which the IC50 in assay [1] was 10 nM; in assay [2], 95 nM.
Consider `CC1(C)CCC(CN2CCN(c3ccc(C(=O)NS(=O)(=O)c4cc5c(c([N+](=O)[O-])c4)N[C@@H](C(=O)N4CCOCC4)CO5)c(Oc4cnc5[nH]ccc5c4)c3)CC2)=C(c2ccc(Cl)cc2)C1` [Example 2-103], for which the results for the IC50 in assay [1] and in assay [2] were 16 nM and 490 nM, respectively.
Turning to `CN1CCN(C(=O)[C@H]2COc3cc(S(=O)(=O)NC(=O)c4ccc(N5CCN(CC6=C(c7ccc(Cl)cc7)CC(C)(C)CC6)CC5)cc4Oc4cnc5[nH]ccc5c4)cc([N+](=O)[O-])c3N2)CC1` [Example 2-104, (R)-2-((1H-pyrrolo[2,3-b]pyridin-5-yl)oxy)-4-(4-((4′-chloro-5,5-dimethyl-3,4,5,6-tetra-hydro[1,1′-biphenyl]-2-yl)methyl)piperazin-1-yl)-N-((3-(4-methylpiperazine-1-carbo-nyl)-5-nitro-3,4-dihydro-2H-benzo[b][1,4]oxazin-7-yl)sulfonyl)benzamide], the IC50 in assay [1] was 7 nM; in assay [2] it was 173 nM.
On to `C[C@H]1CNc2c(cc(S(=O)(=O)NC(=O)c3ccc(N4CCN(CC5=C(c6ccc(Cl)cc6)CC(C)(C)CC5)CC4)cc3Oc3cnc4[nH]ccc4c3)cc2[N+](=O)[O-])O1` [Example 2-105, (S)-2-((1H-pyrrolo[2,3-b]pyridin-5-yl)oxy)-4-(4-((4′-chloro-5,5-dimethyl-3,4,5,6-tetra-hydro-[1,1′-biphenyl]-2-yl)methyl)piperazin-1-yl)-N-((2-methyl-5-nitro-3,4-dihydro-2H-benzo[b][1,4]oxazin-7-yl)sulfonyl)benza-mide], for which the IC50 worked out at 35 nM in assay [1] and 51 nM in assay [2].
For `C[C@@H]1COc2cc(S(=O)(=O)NC(=O)c3ccc(N4CCN(CC5=C(c6ccc(Cl)cc6)CC(C)(C)CC5)CC4)cc3Oc3cnc4[nH]ccc4c3)cc([N+](=O)[O-])c2N1` [Example 2-106, (R)-2-((1H-pyrrolo[2,3-b]pyridin-5-yl)oxy)-4-(4-((4′-chloro-5,5-dimethyl-3,4,5,6-tetra-hydro-[1,1′-bipehnyl]-2-yl)methyl)piperazin-1-yl)-N-((3-methyl-5-nitro-3,4-dihydro-2H-benzo[b][1,4]oxazin-7-yl)sulfonyl)benza-mide] the same measures were 9 nM and 19 nM.
Take `CC[C@@H]1COc2cc(S(=O)(=O)NC(=O)c3ccc(N4CCN(CC5=C(c6ccc(Cl)cc6)CC(C)(C)CC5)CC4)cc3Oc3cnc4[nH]ccc4c3)cc([N+](=O)[O-])c2N1` [Example 2-107]: the IC50 in assay [1] was 8 nM; in assay [2], 22 nM.
The corresponding values for `CC(C)[C@@H]1COc2cc(S(=O)(=O)NC(=O)c3ccc(N4CCN(CC5=C(c6ccc(Cl)cc6)CC(C)(C)CC5)CC4)cc3Oc3cnc4[nH]ccc4c3)cc([N+](=O)[O-])c2N1` [Example 2-108, (R)-2-((1H-pyrrolo[2,3-b]pyridin-5-yl)oxy)-4-(4-((4′-chloro-5,5-dimethyl-3,4,5,6-tetra-hydro-[1,1′-biphenyl]-2-yl)methyl)piperazin-1-yl)-N-((3-isopropyl-5-nitro-3,4-dihydro-2H-benzo[b][1,4]oxazin-7-yl)sulfonyl) benzamide] are 16 nM and 51 nM.
For `CC1(C)CCC(CN2CCN(c3ccc(C(=O)NS(=O)(=O)c4cc5c(c([N+](=O)[O-])c4)N[C@H](C4CC4)CO5)c(Oc4cnc5[nH]ccc5c4)c3)CC2)=C(c2ccc(Cl)cc2)C1` [Example 2-109, (R)-2-((1H-pyrrolo[2,3-b]pyridin-5-yl)oxy)-4-(4-((4′-chloro-5,5-dimethyl-3,4,5,6-tetra-hydro[1,1′-biphenyl]-2-yl)methyl)piperazin-1-yl)-N-((3-cyclopropyl-5-nitro-3,4-dihy-dro-2H-benzo[b][14,]oxazin-7-yl)sulfonyl) benzamide] the same measures were 11 nM and 56 nM.
Turning to `COC[C@@H]1COc2cc(S(=O)(=O)NC(=O)c3ccc(N4CCN(CC5=C(c6ccc(Cl)cc6)CC(C)(C)CC5)CC4)cc3Oc3cnc4[nH]ccc4c3)cc([N+](=O)[O-])c2N1` [Example 2-110, (R)-2-((1H-pyrrolo[2,3-b]pyridin-5-yl)oxy)-4-(4-((4′-chloro-5,5-dimethyl-3,4,5,6-tetra-hydro-[1,1′-biphenyl]-2-yl)methyl)piperazin-1-yl)-N-((3-(methoxymethyl)-5-nitro-3,4-dihydro-2H-benzo[b][1,4]oxazin-7-yl)sulfo-nyl)benzamide], the values for the IC50 in assay [1] and in assay [2] were 2 nM and 96 nM, respectively.
Take `C[C@H]1COc2cc(S(=O)(=O)NC(=O)c3ccc(N4CCN(CC5=C(c6ccc(Cl)cc6)CC(C)(C)CC5)CC4)cc3Oc3cnc4[nH]ccc4c3)cc([N+](=O)[O-])c2N1` [Example 2-111, (S)-2-((1H-pyrrolo[2,3-b]pyridin-5-yl)oxy)-4-(4-((4′-chloro-5,5-dimethyl-3,4,5,6-tetra-hydro-[1,1′-biphenyl]-2-yl)methyl)piperazin-1-yl)-N-((3-methyl-5-nitro-3,4-dihydro-2H-benzo[b][1,4]oxazin-7-yl)sulfonyl)benza-mide]: the values for the IC50 in assay [1] and in assay [2] were 28 nM and 26 nM, respectively.
On to `CC[C@H]1COc2cc(S(=O)(=O)NC(=O)c3ccc(N4CCN(CC5=C(c6ccc(Cl)cc6)CC(C)(C)CC5)CC4)cc3Oc3cnc4[nH]ccc4c3)cc([N+](=O)[O-])c2N1` [Example 2-112], for which the IC50 in assay [1] came out at 11 nM; in assay [2] it was 15 nM.
For `CC(C)[C@H]1COc2cc(S(=O)(=O)NC(=O)c3ccc(N4CCN(CC5=C(c6ccc(Cl)cc6)CC(C)(C)CC5)CC4)cc3Oc3cnc4[nH]ccc4c3)cc([N+](=O)[O-])c2N1` [Example 2-113, (S)-2-((1H-pyrrolo[2,3-b]pyridin-5-yl)oxy)-4-(4-((4′-chloro-5,5-dimethyl-3,4,5,6-tetra-hydro-[1,1′-biphenyl]-2-yl)methyl)piperazin-1-yl)-N-((3-isopropyl-5-nitro-3,4-dihydro-2H-benzo[b][1,4]oxazin-7-yl)sulfonyl) benzamide] the same measures were 6 nM and 20 nM.
